The values that follow come from patent US20110098269A1, “Substituted Pyridazinone Derivatives as Histamine-3 (H3) Receptor Ligands” (Cephalon, Inc., priority 2008, published 2011).

Structures can show the parent of a compound that is named as a salt. Some results are limits rather than exact numbers.

The target of one assay is T1, human H3 receptor (Homo sapiens, UniProt Q9Y5N1).
T1 construct: expressed in transfected cells
Briefly: Human H3 radioligand binding ([3H]-N-alpha-methylhistamine, CHO cell membranes). As to conditions: Human H3 binding constant, class symbols; read-out: hH3 Ki. As for the experimental part:
(§1) Methods: CHO cells stably expressing the human H3 receptor (GenBank: NM_007232) were harvested and cell pellets were frozen (−80° C.). Cell pellets were resuspended in 5 mM Tris-HCl, pH 7.5 with 5 nM EDTA and a cocktail of protease inhibitors (Complete Protease Inhibitor Tablets, Roche Diagnostics). Cells were disrupted using a polytron cell homogenizer and the suspension was centrifuged at 1000×g for 10 minutes at 4° C. The pellet was discarded and the supernatant centrifuged at 40,000×g for 30 min at 4° C. This membrane pellet was washed in membrane buffer containing 50 mM Tris-HCl, pH 7.5 with 0.6 mM EDTA, 5 mM MgCl2 and protease inhibitors, recentrifuged as above and the final pellet resuspended in membrane buffer plus 250 mM sucrose and frozen at −80° C.
(§2) Radioligand Binding. Membranes were resuspended in 50 mM Tris HCl (pH 7.4), 5 mM MgCl2, 0.1% BSA. The membrane suspensions (10 μg protein per well) were incubated in a 96 well microtiter plate with [^3H]-N-alpha-methylhistamine (approximately 1 nM final concentration), test compounds at various concentrations (0.01 nM-30 μM) and scintillation proximity beads (Perkin Elmer, FlashBlueGPCR Scintillating Beads) in a final volume of 80 μl for 4 hours at room temperature, protected from light. Non-specific binding was determined in the presence of 10 μM clobenpropit. Radioligand bound to receptor, and therefore in proximity to the scintillation beads, was measured using a MicroBeta scintillation counter.

Assay [1] deals with T2, rat histamine H3 receptor (Rattus norvegicus, UniProt Q9QYN8).
T2 construct: encoding the entire 445-amino-acid rat histamine H3 receptor; expressed in transfected cells
Briefly: Rat H3 radioligand binding ([3H]-N-alpha-methylhistamine, CHO-A3 cell membranes). As to conditions: Rat H3 binding constant, class symbols; read-out: rH3 Ki.
Excerpt: as §1, with “Cell line development and membrane preparation. The rat” for “Methods: CHO cells stably expressing the human”, “cDNA was PCR amplified from reverse-transcribed RNA pooled from rat thalamus, hypothalamus, striatum and prefrontal cortex with a sequence corresponding to by #338-1672 of Genbank file #NM_053506, encoding the entire 445-amino-acid rat histamine H3 receptor. This was engineered into the pIRES-neo3 mammalian expression vector, which was stably transfected into the CHO-A3 cell line (Euroscreen, Belgium), followed by clonal selection by limiting dilution. Cells” for “(GenBank: NM_007232)”
as §2

T1 sequence (Q9Y5N1 whole entry): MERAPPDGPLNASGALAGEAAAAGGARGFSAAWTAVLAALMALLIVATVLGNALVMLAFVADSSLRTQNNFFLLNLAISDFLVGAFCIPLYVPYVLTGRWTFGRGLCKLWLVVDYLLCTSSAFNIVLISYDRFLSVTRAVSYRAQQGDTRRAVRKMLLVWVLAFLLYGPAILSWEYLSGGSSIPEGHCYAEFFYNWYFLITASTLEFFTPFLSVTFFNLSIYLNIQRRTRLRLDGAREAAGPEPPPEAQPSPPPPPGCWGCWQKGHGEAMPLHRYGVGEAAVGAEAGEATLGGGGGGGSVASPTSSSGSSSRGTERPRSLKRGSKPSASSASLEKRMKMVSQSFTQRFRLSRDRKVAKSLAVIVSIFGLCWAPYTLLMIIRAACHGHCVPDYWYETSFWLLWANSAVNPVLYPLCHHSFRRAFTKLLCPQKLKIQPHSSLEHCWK
T2 sequence (Q9QYN8 whole entry): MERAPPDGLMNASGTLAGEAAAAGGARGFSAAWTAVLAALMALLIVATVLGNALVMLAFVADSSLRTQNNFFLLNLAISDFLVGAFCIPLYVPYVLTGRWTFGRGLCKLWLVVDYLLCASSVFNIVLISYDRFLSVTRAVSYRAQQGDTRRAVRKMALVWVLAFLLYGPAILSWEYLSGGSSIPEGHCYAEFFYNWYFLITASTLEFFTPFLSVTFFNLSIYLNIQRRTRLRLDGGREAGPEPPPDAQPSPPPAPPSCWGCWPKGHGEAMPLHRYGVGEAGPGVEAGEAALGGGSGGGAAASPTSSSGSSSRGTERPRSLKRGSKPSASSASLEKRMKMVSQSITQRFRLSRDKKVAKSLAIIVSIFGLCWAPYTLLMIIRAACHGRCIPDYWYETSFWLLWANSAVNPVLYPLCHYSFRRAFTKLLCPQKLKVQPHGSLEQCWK

What is called Ki is a dissociation constant, usually derived from enzyme kinetics or from competition with a known ligand. For the molecule `Cn1nc(-c2ccc(C(=O)N3CCC[C@H]3CN3CCCC3)cc2)ccc1=O` [Example 45, 2-Methyl-6-[4-((S)-2-pyrrolidin-1-ylmethyl-pyrrolidine-1-carbonyl)-phenyl]-2H-pyridazin-3-one], the Ki (at human H3 receptor; in assay [1]) was under 100 nM in each case. For the molecule `C[C@@H]1CCCN1CCc1ccc(-c2ccc(=O)n(-c3ccc(Cl)cc3)n2)cc1` [Example 52], the Ki (at human H3 receptor; in assay [1]) was under 100 nM each time. Regarding `COCn1ncc(Oc2ccc3c(c2)CCN(C2CCCC2)CC3)cc1=O` [Example 38, 5-(3-Cyclopentyl-2,3,4,5-tetrahydro-1H-benzo[d]azepin-7-yloxy)-2-methoxymethyl-2H-pyridazin-3-one], the Ki was under 100 nM at human H3 receptor and 100 to 1000 nM in assay [1].

In the case of `O=C1NN=C(c2ccc3c(c2)CCN(C2CCC2)CC3)C2CC12` (stereo not drawn) [Example 40, 5-(3-Cyclobutyl-2,3,4,5-tetrahydro-1H-benzo[d]azepin-7-yl)-3,4-diaza-bicyclo[4.1.0]hept-4-en-2-one], the Ki was under 100 nM on human H3 receptor and 100 to 1000 nM in assay [1]. In the same order, the values of `C[C@@H]1CCCN1CCc1ccc(-c2ccc(=O)n(-c3ccc(F)cc3)n2)cc1` [Example 67] are under 100 nM and under 100 nM. The like results for `Cn1nc(-c2ccc3c(c2)CCN(C2CCCC2)CC3)ccc1=O` [Example 23, 6-(3-Cyclopentyl-2,3,4,5-tetrahydro-1H-benzo[d]azepin-7-yl)-2-methyl-2H-pyridazin-3-one. HCl] were, in that order, under 100 nM and 100 to 1000 nM.

For `CCNCCc1ccc(-c2ccc(=O)n(C)n2)cc1` [Example 57], the Ki (on human H3 receptor; in assay [1]) was 100 to 1000 nM each time. On to `Cn1ncc(Oc2ccc3c(c2)CCN(C2CCC2)CC3)cc1=O` [Example 35, 5-(3-Cyclobutyl-2,3,4,5-tetrahydro-1H-benzo[d]azepin-7-yloxy)-2-methyl-2H-pyridazin-3-one], for which the Ki was under 100 nM at human H3 receptor and 100 to 1000 nM in assay [1]. The like results for `O=c1ccc(-c2ccc(CCN3CCOCC3)cc2)nn1-c1ccccc1` [Example 68] were, in that order, over 1000 nM and over 1000 nM.

As for `CN(CCc1ccc(-c2ccc(=O)n(C)n2)cc1)C1CCCCC1` [Example 55], the Ki (at human H3 receptor; in assay [1]) was 100 to 1000 nM in each case. Turning to `CC(=O)N1CCN(CCc2ccc(-c3ccc(=O)n(C)n3)cc2)CC1` [Example 58], the Ki (at human H3 receptor; in assay [1]) was 100 to 1000 nM throughout.

As for `O=C1NN=C(c2ccc3c(c2)CCNCC3)C2CC12` (stereo not drawn) [Example 39, 5-(2,3,4,5-Tetrahydro-1H-benzo[d]azepin-7-yl)-3,4-diaza-bicyclo[4.1.0]hept-4-en-2-one], the Ki (on human H3 receptor; in assay [1]) was 100 to 1000 nM each time.

With `C[C@@H]1CCCN1CCc1ccc(-c2ccc(=O)n(-c3ccccn3)n2)cc1` [Example 69], the Ki was under 100 nM on human H3 receptor and 100 to 1000 nM in assay [1]. As to `O=c1c(Cl)c(Oc2ccc3c(c2)CCN(C2CCC2)CC3)cnn1-c1ccccn1` [Example 33, 4-Chloro-5-(3-cyclobutyl-2,3,4,5-tetrahydro-1H-benzo[d]azepin-7-yloxy)-2-pyridin-2-yl-2H-pyridazin-3-one], the Ki (on human H3 receptor; in assay [1]) was under 100 nM throughout.

Turning to `CC(C)N(C)CCc1ccc(-c2ccc(=O)n(C)n2)cc1` [Example 54], the Ki (on human H3 receptor; in assay [1]) was 100 to 1000 nM throughout. Turning to `CN(CCc1ccc(-c2ccc(=O)n(C)n2)cc1)C1CCC1` [Example 61], the Ki is under 100 nM on human H3 receptor and 100 to 1000 nM in assay [1]. In the same order, the values of `Cn1ncc(Oc2ccc3c(c2)CCN(C2CCC2)CC3)c(Cl)c1=O` [Example 30, 4-Chloro-5-(3-cyclobutyl-2,3,4,5-tetrahydro-1H-benzo[d]azepin-7-yloxy)-2-methyl-2H-pyridazin-3-one] are under 100 nM and under 100 nM. In the same order, the values of `CCN(CCc1ccc(-c2ccc(=O)n(C)n2)cc1)C1CCC1` [Example 62] are 100 to 1000 nM and 100 to 1000 nM. For the molecule `O=c1c(Cl)c(Oc2ccc3c(c2)CCN(C2CCC2)CC3)cnn1CC(F)(F)F` [Example 34, 4-Chloro-5-(3-cyclobutyl-2,3,4,5-tetrahydro-1H-benzo[d]azepin-7-yloxy)-2-(2,2,2-trifluoro-ethyl)-2H-pyridazin-3-one], the Ki is under 100 nM at human H3 receptor and 100 to 1000 nM in assay [1]. In the same order, the values of `O=C(c1ccc(-c2ccc(=O)n(-c3ccc(F)cc3)n2)cc1)N1CCC[C@H]1CN1CCCC1` [Example 49, 2-(4-Fluoro-phenyl)-6-[4-((S)-2-pyrrolidin-1-ylmethyl-pyrrolidine-1-carbonyl)-phenyl]-2H-pyridazin-3-one] are under 100 nM and 100 to 1000 nM. The like results for `Cn1nc(-c2ccc(CCN3CCCCC3)cc2)ccc1=O` [Example 64] were, in that order, 100 to 1000 nM and 100 to 1000 nM.

Consider `CCN(CC)CCc1ccc(-c2ccc(=O)n(C)n2)cc1` [Example 56], for which the Ki (on human H3 receptor; in assay [1]) was 100 to 1000 nM in each case.

Consider `Cn1ncc(Oc2ccc3c(c2)CCN(C2CCCC2)CC3)cc1=O` [Example 36, 5-(3-Cyclopentyl-2,3,4,5-tetrahydro-1H-benzo[d]azepin-7-yloxy)-3-methyl-2H-pyridazin-3-one], for which the Ki at human H3 receptor is under 100 nM; in assay [1], 100 to 1000 nM. For the molecule `CC(C)N1CCc2ccc(-c3ccc(=O)n(C)n3)cc2CC1` [Example 22, 6-(3-Isopropyl-2,3,4,5-tetrahydro-1H-benzo[d]azepin-7-yl)-2-methyl-2H-pyridazin-3-one. HCl], the Ki (on human H3 receptor; in assay [1]) was 100 to 1000 nM in each case. Take `CC(C)N1N=C(c2ccc3c(c2)CCNCC3)CCC1=O` [Example 3, 2-Isopropyl-6-(2,3,4,5-tetrahydro-1H-benzo[d]azepin-7-yl)-4,5-dihydro-2H-pyridazin-3-one]: the Ki (at human H3 receptor; in assay [1]) was 100 to 1000 nM throughout.

On to `Cn1ncc(Oc2ccc3c(c2)CCN(C2CCCC2)CC3)c(Br)c1=O` [Example 32, 4-Bromo-5-(3-cyclopentyl-2,3,4,5-tetrahydro-1H-benzo[d]azepin-7-yloxy)-2-methyl-2H-pyridazin-3-one], for which the Ki (at human H3 receptor; in assay [1]) was under 100 nM in each case. Turning to `C[C@@H]1CCCN1CCc1ccc(-c2ccc(=O)n(C)n2)cc1` [Example 63], the Ki (on human H3 receptor; in assay [1]) was under 100 nM in each case. With `C[C@@H]1CCCN1CCc1ccc(-c2ccc(=O)n(-c3ccccc3)n2)cc1` [Example 66], the Ki (at human H3 receptor; in assay [1]) was under 100 nM each time.

For the molecule `CC(C)n1nc(-c2ccc3c(c2)CCNCC3)ccc1=O` [Example 5, 2-Isopropyl-6-(2,3,4,5-tetrahydro-1H-benzo[d]azepin-7-yl)-2H-pyridazin-3-one], the Ki (on human H3 receptor; in assay [1]) was 100 to 1000 nM in each case.

With `C[C@@H]1CCCN1CCc1ccc(-c2ccc(=O)n(Cc3ccccc3)n2)cc1` [Example 53], the Ki (at human H3 receptor; in assay [1]) was under 100 nM throughout. With `COCn1ncc(Oc2ccc3c(c2)CCN(C2CCC2)CC3)cc1=O` [Example 37, 5-(3-Cyclobutyl-2,3,4,5-tetrahydro-1H-benzo[d]azepin-7-yloxy)-2-methoxymethyl-2H-pyridazin-3-one], the Ki was under 100 nM on human H3 receptor and 100 to 1000 nM in assay [1]. As to `CS(=O)(=O)c1ccc(-n2nc(-c3ccc4c(c3)CCNCC4)ccc2=O)cc1` [Example 24, 2-(4-Methanesulfonyl-phenyl)-6-(2,3,4,5-tetrahydro-1H-benzo[d]azepin-7-yl)-2H-pyridazin-3-one], at human H3 receptor, the Ki is over 1000 nM. Consider `O=C1NN=C(c2ccc3c(c2)CCNCC3)C2CCCC12` (stereo not drawn) [Example 41, 4-(2,3,4,5-Tetrahydro-1H-benzo[d]azepin-7-yl)-2,4-a,5,6,7,7a-hexahydro-cyclopenta[d]pyridazin-1-one], for which the Ki (at human H3 receptor; in assay [1]) was 100 to 1000 nM in each case. `Cn1nc(-c2ccc(C(=O)N3CCN4CCC[C@H]4C3)cc2)ccc1=O` [Example 48, 6-[4-((S)-Hexahydro-pyrrolo[1,2-a]pyrazine-2-carbonyl)-phenyl]-2-methyl-2H-pyridazin-3-one]: the Ki (at human H3 receptor; in assay [1]) was 100 to 1000 nM in each case. With `Cn1nc(-c2ccc(CCN3CCC3)cc2)ccc1=O` [Example 60], the Ki (at human H3 receptor; in assay [1]) was 100 to 1000 nM each time.
